In patent publication US20050037062A1, “Emulsifying systems containing azetidine derivatives” (Aventis Pharma S.A., priority 2003, published 2005):
Converted amounts (≈) assume the structure as drawn. Like-named read-outs stand apart in the source and are kept apart here.

How the values were obtained:
[1] = First in Man study (Maximum Tolerated Dose, interindividual variability, food effect); type: in vivo; conditions: Miglyol 812N solution
Method: (§1) In the first preclinical studies performed in rats, the oral administration of an aqueous suspension of a drug substance of formula (I) in 0.5% methylcellulose/0.2% tween 80 (dose at 10 mg/kg) led to a very low bioavailability (3%). […] Furthermore, this excipient (medium chain triglyceride) is known for its digestibility and regulatory acceptability. […] However, in the First in Man study, an important food effect and interindividual variability were observed: the Maximum Tolerated Dose was around 100 mg in fasted conditions, with an interindividual variability of 50%, whereas in fed conditions the Maximum Tolerated Dose was divided by 10 with a decrease of the interindividual variability to 30%.

[2] = Solubility of compound (Ic) in lipids, surfactants and pharmaceutical cosolvents; type: physicochemical
Description: The first step was to determine the solubility of compound(Ic) in an exhaustive series of lipids and other pharmaceutical cosolvents including vegetable oils, lipidic components, surfactants, hydrophilic components and phospholipids. The protocol of the solubility measurement is reported in the annex.

[3] = Colloidal stability and self-emulsifying properties: drug recovered after incubation in simulated GI media and filtration; type: physicochemical; conditions: for Compound (Ic) recovered after filtration (2 μm) after incubation with GI media: diluted 1:50, 2 h at 37° C., theoretical concentration 200 μg/ml; for filtered fraction: aqueous solution of the drug, filter 0.45, 2 or 5 μm
Method: The preparation of the mixture of Miglyol 812 (liquid), Cremophor RH40 (semisolid at room temperature, solidification point 28° C.) and Capryol 90 (liquid) needed to heat the mixture at 60° C. to obtain a homogeneous solution. In addition, the heating of the mixture could have an impact on the chemical stability of Compound Ic. Taking into account these two issues, the proposition was made to replace Cremophor RH 40 by Cremophor EL (from same chemical family). Cremophor EL, polyoxyl 35 castor oil, is a liquid surfactant: No heating is needed for the manufacturing. Two tests were performed to evaluate the interest of Cremophor EL in comparison with Cremophor RH 40: design of the pseudoternary diagram for a surfactant/co surfactant ratio of 3:1 and test of the infinite dilutability. [drawing 15] • Miglyol 812N (Condea, Batch 508) • PEG 400—Batch 5056 • Phosal 50PG (Aventis Nattermann, Batch 228188) • Labrafil 1944CS (Gattefossé, Batch 15195) • Labrasol (Gattefossé, Batch 22478) • Gelucire 44/14 (Gattefossé, Batch 14236) Microemulsions (Cremophor RH40 or EL, Capryol 90, Miglyol 812N) The weighed drug (50 mg) was dispersed in the excipient (up to 5 g), and then maintained under mechanical stirring until dissolution. […] The mass was poured in a suppository mould and kept refrigerated overnight. For the stability studies, the melted mass was poured into hard gelatine capsule (size 1) and kept refrigerated overnight. The gelatine shell was then removed. [drawing 17] The following simulated media were selected for the present experiment: • Gastric medium USP, pH 1.2 • Fasted intestinal medium, pH 6.8 (ref. Dressman et al., Pharm. Res., 1998)
Fed intestinal medium, pH 5 (ref. Dressman et al., Pharm. Res., 1998)
All Compound (Ic) formulations (400 mg) were diluted 1:50 in the gastric, fasted intestinal or fed intestinal medium (20 ml), then incubated during 2 hours at 37° C. under mechanical stirring (300 rpm). The drug concentration was determined by HPLC before and after filtration (0.2 or 2 μm).
The aim of this study was to evaluate the colloidal stability and the self-emulsifying properties of the emulsion/microemulsion/micellar solution of the (Ic) formulation after incubation in the GI media. Thus, the sample was filtered onto 2 μm (able to retain oil droplets >2 μm, as well as drug crystals >2 μm) then dosed by HPLC. The filter size (2 μm) has been chosen after a screening with different filter sizes (0.45, 2 and 5 μm) tested on the aqueous solution of the drug. […] In summary, the filtered fraction was approximately 1% in the gastric medium, 2% in the fasted intestinal medium, 4.5-5.5% in the fed intestinal medium.

[4] = Oral bioavailability in preclinical studies in rats; conditions: rat, in vivo
Method: as §1

For `CS(=O)(=O)C(=C1CN(C(c2ccc(Cl)cc2)c2ccc(Cl)cc2)C1)c1cc(F)cc(F)c1` [Compound (Ic)], the “Maximum Tolerated Dose” value ([1]; fasted conditions) was “around 100 mg”, the interindividual variability ([1]; fasted conditions) was 50% and the “Maximum Tolerated Dose relative to fasted conditions” value ([1]; fed conditions) was “divided by 10”. For the same compound, the interindividual variability ([1]; fed conditions) was 30%, the solubility ([2]; aqueous with cosolvent or surfactant or cyclodextrin, in Cremophor RH40 (POE hydrogenated castor oil), read-out: solubility) was 80.6 mg/mL (≈ 163 mM) and the solubility ([2]; aqueous with cosolvent or surfactant or cyclodextrin, in HP β Cyclodextrin, read-out: solubility) was 0.05 mg/mL (≈ 0.101 mM). The solubility ([2]; aqueous with cosolvent or surfactant or cyclodextrin, in Span 20 (Sorbitan monolaurate), read-out: solubility) was 31.6 mg/mL (≈ 63.9 mM), the solubility ([2]; aqueous with cosolvent or surfactant or cyclodextrin, in Span 85 (Sorbitan trioleate), read-out: solubility) was 92 mg/mL (≈ 186 mM) and the solubility ([2]; aqueous with cosolvent or surfactant or cyclodextrin, in Tween 80 (POE monooleate), read-out: solubility) was 50.6 mg/mL (≈ 102 mM). It also gave a solubility ([2]; in Brij 96 (POE oleyl ether)) of 85.7 mg/g, a solubility ([2]; in Capryol 90 (Polyethyleneglycol monocaprylate)) of 56.6 mg/g and a solubility ([2]; in Castor oil) of 16.1 mg/g. For the same compound, the solubility ([2]; in Coconut oil) was 18.6 mg/g, the solubility ([2]; in Cremophor RH 40 (Polyoxyl 40 hydrogenated castor oil)) was 80.6 mg/g and the solubility ([2]; in Crossential LN 75 (Linolenic acid)) was 45.4 mg/g. It also gave a solubility ([2]; in Crossential O94 (Oleic acid)) of 19.6 mg/g, a solubility ([2]; in Edenor C8 98-100 (Caprylic acid)) of 75.5 mg/g and a solubility ([2]; in Gelucire 44/14 (lauroyl macrogol-32 glycerides)) of 90.1 mg/g. For the same compound, the solubility ([2]; in Gelucire 50/13 (stearoyl macrogol-32 glycerides)) was 78.5 mg/g, the solubility ([2]; in Labrafil M 1944 CS (Oleic Macrogol-6 glycerides)) was 30.3 mg/g and the solubility ([2]; in Labrasol (Caprylocaproyl macrogol-8 glycerides)) was 111.8 mg/g. For the same compound, the solubility ([2]; in Lauroglycol (PG monolaurate)) was 28.5 mg/g, the solubility ([2]; in Miglyol 812 (Caprylic/capric triglycerides)) was 37.4 mg/g and the solubility ([2]; in Myrj 45 (POE stearate)) was 86.9 mg/g. For the same compound, the solubility ([2]; in Myvacet 9-45 (Distilled acetylated monoglycerides)) was 54.8 mg/g, the solubility ([2]; in Neobee M 20 (PG dicaprylate/dicaprate)) was 47.7 mg/g and the solubility ([2]; in Olive oil) was 10.9 mg/g. The solubility ([2]; in PEG 1500 (polyethylene glycol 1500)) was <10 mg/g, the solubility ([2]; in Phosal 40 MD (Phosphatidylcholine 38 ± 1.5% in glyceryl stearate, soya oil and linoleic acid ethylester)) was 12.5 mg/g and the solubility ([2]; in Phosal 50 PG (Phosphatidylcholine ≧ 50% in propylene glycol)) was 11.7 mg/g. For the same compound, the solubility ([2]; in Phosal 50 PG (Phosphatidylcholine ≧ 50% in propylene glycol), listed as Compound Ic) was 11.5 mg/g, the solubility ([2]; in Phosal 53 MCT (Phosphatidylcholine 56 ± 3% in caprylic/capric triglycerides, alcohol, glyceryl stearate, oleic acid and ascorbyl palmitate)) was 25.8 mg/g and the solubility ([2]; in Phosal 75 SA (Phosphatidylcholine 75 ± 3% in alcohol, safflower oil, glyceryl stearate, coconut oil and ascorbyl palmitate)) was <10 mg/g. It also gave a solubility ([2]; in Phospholipon 90 (Phosphatidylcholine 93%)) of 40 mg/g, a solubility ([2]; in Safflower oil) of 14.8 mg/g and a solubility ([2]; in Sesame oil) of 10.9 mg/g. For the same compound, the solubility ([2]; in VitaminE TPGS (d-α-tocopheryl polyethylene glycol 1000 succinate)) was 100 mg/g, the solubility ([2]; oil or lipid, in Imwitor 742 (Glyceryl mono-dicaprylate/caprate), read-out: solubility) was 31.2 mg/mL (≈ 63.1 mM) and the solubility ([2]; oil or lipid, in Imwitor 988 (Glyceryl mono-dicaprylate), read-out: solubility) was 41.2 mg/mL (≈ 83.3 mM). It also gave a solubility ([2]; oil or lipid, in Labrafil M1944 CS (oleyl macrogol-6-glycerides), read-out: solubility) of 30.3 mg/mL (≈ 61.3 mM), a solubility ([2]; oil or lipid, in Miglyol 812 (caprylic/capric triglyceride), read-out: solubility) of 35.9 mg/mL (≈ 72.6 mM) and a solubility ([2]; oil or lipid, in Peanut oil, read-out: solubility) of 7.2 mg/mL (≈ 14.6 mM). For the same compound, the solubility ([2]; oil or lipid, in Soyabean oil, read-out: solubility) was 31.8 mg/mL (≈ 64.3 mM), the solubility ([2]; organic solvent or mixture, in Ethanol, read-out: solubility) was 5.8 mg/mL (≈ 11.7 mM) and the solubility ([2]; organic solvent or mixture, in PEG 400 (polyethylene glycol 400), read-out: solubility) was 78.1 mg/mL (≈ 158 mM). For the same compound, the solubility ([2]; organic solvent or mixture, in Transcutol (Diethylene glycol monoethyl ether), read-out: solubility) was 89.8 mg/mL (≈ 182 mM), the “Compound (Ic) recovered after filtration (2 μm) after incubation with GI media” value (shortened to “Compound (Ic) recovered after filtration”) ([3]; Fasted intestinal medium pH 6.8) was 4.2 µg/mL and the “Compound (Ic) recovered after filtration” value ([3]; Fed intestinal medium pH 5) was 8.8 µg/mL. The “Compound (Ic) recovered after filtration” value ([3]; Gastric medium) was 1.9 µg/mL, the filtered fraction ([3]; fasted intestinal medium) was ~2% and the filtered fraction ([3]; fed intestinal medium) was 4.5-5.5%. The filtered fraction ([3]; gastric medium) was “approximately 1%”, the bioavailability ([4]; aqueous suspension in 0.5% methylcellulose/0.2% tween 80, dose 10 mg/kg) was 3% and the bioavailability ([4]; solution of 25 mg/mL in Miglyol 812N, dose 1 mg/kg) was 13%. The bioavailability ([4]; solution of 25 mg/mL in Miglyol 812N, dose 10 mg/kg) was 37%.
